In patent US20240067931A1, “METHODS AND COMPOSITIONS FOR SMALL MOLECULE BASED PANCREATIC BETA CELL INDUCTION” (Trailhead Biosystems Inc., priority 2022, published 2024):
“Also recorded” adds a separate entry of the source. Peptide text beside a SMILES is read from it.

B1: Cardiotropin: factor tested in HD-DoE for INS induction (protein, UniProt Q16619 1-201, looked up)
Cardiotrophin-1: MSRREGSLEDPQTDSSVSLLPHLEAKIRQTHSLAHLLTKYAEQLLQEYVQLQGDPFGLPSFSPPRLPVAGLSAPAPSHAGLPVHERLRLDAAALAALPPLLDAVCRRQAELNPRAPRLLRRLEDAARQARALGAAVEALLAALGAANRGPRAEPPAATASAASATGVFPAKVLGLRVCGLYREWLSRTEGDLGQLLPGGSA

How the values were obtained:
Format in all cases: cell-based, human
PDX1 = assay: HD-DoE perturbation matrix on DFE culture, modelling for maximal PDX1 induction; settings: DFE culture, HD-DoE, FIG. 11
Excerpt: FIG. 11 Modelling for maximal PDX1 induction. Cultures of the iPSC cell line Cr01 was differentiated to a DFE state and then subjected to an HD-DoE perturbation matrix composed of the compounds indicated in the figure. MODDE software was used to predict the optimal condition for maximizing PDX1 activation. Predicted factor additives for this optimization and the relative expression under these conditions for the genes measured are shown.
FIG. 12 Coefficient plots show main effectors for pancreatic progenitor generation from a DFE precursor. Coefficients for the HD-DoE design shown in Example 9 are shown for PDX1 and PTF1A. The co-expression of these two genes is indicative of a pancreatic field.
To determine the best way for inducing a pancreatic fate from a DFE progenitor, a subsequent HD-DoE analysis was performed. Exposing a DFE culture to a perturbation matrix composed of all previously identified effectors shown to have a positive effect on PDX1 activation was used to define optimal conditions for PDX1 induction.

[1] = tested on: GCG, SST, PDX1, PAX4, MAFA and NKX2.2; assay: HD-DoE stage 3 screening, heat map and dynamic profiling of endocrine and beta cell genes; settings: for effect on beta cell specific transcription factors / all genes optimized: heat maps FIG. 19 and FIG. 21; for effect on beta cell state / endocrine fate: heat map FIG. 21, dynamic profiling FIGS. 22-25
Excerpt: (§1) FIG. 19 Heat map showing descending factor contributions for the induction of INS. The three HD-DoE experiments shown in Example 17 were used for modeling the maximal expression of several other genes, including GCG, SST, PDX1, PAX4, MAFA and NKX2.2, which are indicative of endocrine cell types with a focus on pancreatic beta cells as indicated at the top of the heat map. The relative factor contributions for the activation of these different genes were then used to generate a secondary heat map representative of the gene induction logic and then ranked according to the compound's ability to induce INS. Dark blue colors indicate a high inductive capacity, while dark red colors indicative of a highly repressive capacity for activation of the genes are shown.
(§2) FIG. 21 Heat map showing descending factor contributions for the induction of INS. The four HD-DoE experiments shown in Example 19 were used for modeling the maximal expression of several other genes. These genes were GCG, SST, PDX1, PAX4, MAFA and NKX2.2. These genes are all indicative of endocrine cell types with a focus on the beta cell as indicated at the top of the heatmap. The relative factor contribution for the activation of these different genes were then used to generate a secondary heat map representative of these genes induction logic and then ranked order according to the compounds ability to induce INS. Dark blue indicates high inductive capacity, while dark red is indicative of a highly repressive effect for the activation of the genes shown.
(§3) FIGS. 22-25. Dynamic profiling of endocrine sub-type regulation. One of the HD-DoE experiments shown in Example 19 was analyzed using MODDE software and dynamic profiling of the endocrine products GCG, SST and INS are shown.
To ascertain which factors could potentially favor the beta cell over other endocrine cell types, optimizers for markers of the other endocrine cell types and beta cell specific markers were compared. The relative factor contribution from the different optimizers were compared.
Optimizers for the main pancreatic endocrine hormones and beta cell-specific transcription factors were generated to compare their contribution factors for this series of HD-DoE. Compounds that could selectively favor the differentiation of the beta cell over that of the alpha and delta cells were identified in this manner.

INS = assay: HD-DoE screening for optimal de novo beta cell induction (stage 3 cultures, 3 day perturbation), INS induction; settings: for factor contribution, induction of INS: Example 19, four HD-DoE panels, FIG. 20; for effect on INS induction: heat map FIG. 21, dynamic profiling FIGS. 22-25
Method: FIG. 18 HD-DoE screening for optimal de novo beta cell induction. Culture of the iPSC cell line CR01 were differentiated to a DFE state for 3 days. These cultures were then incubated in the presence of stage 2 media for an additional 3 days. These cultures were then incubated for an additional 5 days in the presence of GSI-XX and A8301 followed by a 3 day incubation in the presence of a perturbation matrix composed of the compounds indicated in the different panels. This was performed 3 separate times (once for each of the 3 panels). These HD-DoE experiments were then analyzed using MODDE software for maximal induction of insulin. The predicted results are shown.
FIG. 20 HD-DoE screening for optimal de novo beta cell induction. Cultures of the iPSC cell line CR01 were differentiated to a DFE state for 3 days. These cultures were then incubated in the presence of stage 2 media for an additional 3 days. These cultures were then incubated for an additional 5 days in the presence of GSI-XX and A8301 followed by a 3 day incubation in the presence of a perturbation matrix composed of the compounds indicated in the different panels. This was performed 4 separate times (once for each of the 4 panels). These HD-DoE experiments were then analyzed using MODDE software for the maximal induction of Insulin. The predicted results are shown.
as §3
To define factors contributing to the activation of INS, a series of HD-DoE perturbations were performed using factors chosen to target different aspects of beta cell biology.
To define factors contributing to the activation of INS, a series HD-DoE perturbations were performed using factors chosen to target different aspects of beta cell biology.

GCG (alpha cell marker) = assay: HD-DoE stage 3 screening, heat map and dynamic profiling: GCG; settings: heat map FIG. 21, dynamic profiling FIGS. 22-25
Excerpt: as §1, §2, §3

SST (delta cell marker) = assay: HD-DoE stage 3 screening, heat map and dynamic profiling: SST; settings: heat map FIG. 21, dynamic profiling FIGS. 22-25
Excerpt: as §1, §2, §3

| Molecule | factor contribution, induction of INS (INS) | effect on INS induction (INS) | effect on GCG induction / alpha cell fate (GCG (alpha cell marker)) | effect on SST induction / delta cell fate (SST (delta cell marker)) | further results |
| --- | --- | --- | --- | --- | --- |
| COc1cc(O)c2c(c1)/C=C/C[C@H](O)[C@H](O)C(=O)/C=C\C[C@H](C)OC2=O [(5Z)-7-oxozeanol, (5Z)-7-Oxozeaenol] | – | – | – | – | factor contribution, PDX1 activation (PDX1): 8.2 |
| Clc1ccc(C2(c3ccc(-c4cn[nH]c4)cc3)CCNCC2)cc1 [AT7867] | – | – | – | – | factor contribution, PDX1 activation (PDX1): 15.5 |
| CC(C)Cn1c(=O)n(C)c(=O)c2[nH]cnc21 [IBMX] | – | – | – | – | effect on beta cell specific transcription factors / all genes optimized [1]: beneficial for all genes optimized |
| Nc1nc(OC(c2ccc(-c3cccc(F)c3)cc2)C(F)(F)F)cc(-c2ccc(C[C@H](N)C(=O)O)cc2)n1 (stereo partly drawn) [LP533401] | 10.7 | contributed to the induction of INS | – | – | – |
| Nc1nc(Nc2ccc3c(c2)CC[C@@H](N2CCCC2)CC3)nn1-c1cc2c(nn1)-c1ccccc1CCC2 [R248] | 22.9 | – | – | – | effect on beta cell state / endocrine fate [1]: strongest inducers of the beta cell state |
| Cc1nn(-c2ccccc2)c(C)c1/C=N/N1CCN(Cc2ccccc2)CC1 [SANT1] | 15.0 | stronger for INS induction | increased induction | increased induction | factor contribution, PDX1 activation (PDX1): 5.0; effect on beta cell state / endocrine fate [1]: increased induction of endocrine fates without total specificity towards the beta cell |
| CC(C)n1nc(C#Cc2ccccc2)c2c(N)ncnc21 [SPP86] | 4.8 | positive effect on INS induction, though with far less contribution | – | – | – |
| C/C(=C\c1ccc(C(=O)O)cc1)c1ccc2c(c1)C(C)(C)CCC2(C)C [TTNPB] | 12.7 | – | strongly inhibiting; also recorded: inhibitory | strongly inhibiting; also recorded: inhibitory | effect on beta cell state / endocrine fate [1]: strongest inducers of the beta cell state; effect on beta cell specific transcription factors / all genes optimized [1]: strongly activate all beta cell specific transcription factors |
| Clc1cccc(Cl)c1N=C1NCCN1 [clonidine] | – | contributed to the induction of INS | – | – | contribution factor, activation of INS (INS; Example 17, three HD-DoE panels, FIG. 18): 23.4 |
| CC1=NS(=O)(=O)c2cc(Cl)ccc2N1 [diazoxide] | – | positively increased INS induction, though not significantly | – | – | – |
| C[C@H](N)C(=O)N[C@@H](CCC(N)=O)C(=O)O [glutamax] (H-Ala-Gln-OH) | – | stronger for INS induction | increased induction | increased induction | effect on beta cell state / endocrine fate [1]: preferentially favoring the beta cell fate, though to a lesser level; also recorded: positive inducer of endocrine fate; also recorded: increased induction of endocrine fates without total specificity towards the beta cell |
| NC(=O)CC[C@H](N)C(=O)O [glutamine] | 10.4 | – | – | – | – |
| CCC(=O)O [propionate] | 5.3 | significantly increased INS levels | inhibited | inhibited | effect on beta cell state / endocrine fate [1]: preferentially favoring the beta cell fate, though to a lesser level |
| CC1=C(/C=C/C(C)=C/C=C/C(C)=C/C(=O)O)C(C)(C)CCC1 [retinoic acid] | – | – | – | – | factor contribution, PDX1 activation (PDX1): 19.2 |
| CN(CCOc1ccc(CC2SC(=O)NC2=O)cc1)c1ccccn1 (stereo not drawn) [rosiglitazone] | 6.0 | – | – | – | – |
| NCCc1c[nH]c2ccc(O)cc12 [serotonin] | – | – | strongly activated GCG induction | inhibited SST induction | – |
| NCCc1c[nH]c2ccccc12 [tryptamine] | 21.2 | strongest INS inducing effects | no effect | no effect | – |
| FGF19: FGF pathway agonist | – | contributed to overall INS induction, but to a much smaller degree | – | – | – |
| obestatin | 9.6 | contributed to the induction of INS | – | – | – |
| B1 | – | positively increased INS induction, though not significantly | – | – | – |
